In patent publication US20200207734A1, “HETEROCYCLIC COMPOUND AND USE THEREOF” (Takeda Pharmaceutical Company Limited, priority 2017, published 2020):

The compounds below were run against T1, human orexin type 2 receptor (Homo sapiens, UniProt O43614) (assay: Measurement of orexin type 2 receptor agonist activity (calcium fluorescence, CHO cells expressing hOX2R)). Details: test compound 3 μM; CHO cells expressing human OX2 receptor; DMSO = 0%, orexin A (human) = 100%.
T1 construct: human orexin type 2 receptor cDNA was inserted into pcDNA3.1(+) plasmid vector (Invitrogen); expressed in transfected cells
T1 sequence (O43614 1-444): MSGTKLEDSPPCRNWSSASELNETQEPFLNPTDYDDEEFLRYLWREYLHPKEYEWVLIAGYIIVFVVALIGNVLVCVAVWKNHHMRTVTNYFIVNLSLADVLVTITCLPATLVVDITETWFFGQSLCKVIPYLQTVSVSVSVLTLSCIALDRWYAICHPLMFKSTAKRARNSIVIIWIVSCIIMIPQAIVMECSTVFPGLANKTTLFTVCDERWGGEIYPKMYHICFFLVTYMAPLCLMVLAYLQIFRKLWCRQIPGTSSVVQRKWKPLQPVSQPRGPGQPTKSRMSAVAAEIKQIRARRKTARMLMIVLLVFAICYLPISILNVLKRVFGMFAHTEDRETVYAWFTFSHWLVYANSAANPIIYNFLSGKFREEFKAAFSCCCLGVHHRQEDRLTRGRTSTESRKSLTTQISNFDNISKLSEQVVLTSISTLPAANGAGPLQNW
Assay type: cell-based
Source text: To obtain a cell clone stably expressing human orexin type 2 receptor, human orexin type 2 receptor cDNA was inserted into pcDNA3.1(+) plasmid vector (Invitrogen), and a plasmid DNA for expression of human orexin type 2 receptor (pcDNA3.1(+)/hOX2R) was cloned. The plasmid DNA was introduced into CHO-dhfr cell by an electroporation method, and human orexin type 2 receptor expressing clone cells were obtained by limiting dilution method by using G418 drug resistance as a selection marker.
CHO cells forcibly expressing human OX2 receptor were seeded in each well of 384 well black transparent bottom plate (BD Falcon) at 7,500 cells/well, and cultured for one day in a 5% CO2 incubator at 37° C. After removal of the medium in the cell plate, assay buffer A containing a calcium indicator (HBSS (Thermo Fisher Scientific), 20 mM HEPES (Thermo Fisher Scientific), 0.1% BSA (Wako Pure Chemical Industries, Ltd. or Sigma-Aldrich), 2.5 μg/mL Fluo-4 AM (DOJINDO Chemical), 0.08% Pluronic F127 (DOJINDO Chemical), 1.25 mM probenecid (DOJINDO Chemical)) was added at 30 μL/well. The plate was stood for 30 min in a 5% CO2 incubator at 37° C., and further stood at room temperature for 30 min. A test compound prepared by diluting with assay buffer B (HBSS, 20 mM HEPES, 0.1% BSA) was added at 10 μL/well, and the fluorescence value was measured by FDSSμCELL (Hamamatsu Photonics K.K.) every one sec for 1 min, and thereafter every two sec for 1 min 40 sec. The activity (%) of the test compound was calculated assuming that variation in the fluorescence value when DMSO was added instead of the test compound was 0%, and variation in the fluorescence value when orexin A (human) (PEPTIDE INSTITUTE, INC.) was added at the final concentration of 10 nM was 100%.

OX2R agonist activity (3 μM, %) [%]	SMILES
104	CC(C)C(=O)N1CC[C@H](NS(C)(=O)=O)[C@@H]1Cc1cccc(-c2cccc(F)c2)c1F (relative stereo) [Example 294, N-(cis-2-((2,3′-difluorobiphenyl-3-yl)methyl)-1-isobutyrylpyrrolidin-3-yl)methanesulfonamide]
100	CS(=O)(=O)N[C@H]1CCN(C(=O)C2CCC2)[C@H]1Cc1cc(F)cc(-c2ccccc2)c1 (relative stereo) [Example 299, N-(cis-1-(cyclobutylcarbonyl)-2-((5-fluorobiphenyl-3-yl)methyl)pyrrolidin-3-yl)methanesulfonamide]
99	CS(=O)(=O)N[C@H]1CCN(C(=O)C2CCC2)[C@H]1Cc1cc(F)cc(-c2cccc(F)c2)c1 (relative stereo) [Example 300, N-(cis-1-(cyclobutylcarbonyl)-2-((3′,5-difluorobiphenyl-3-yl)methyl)pyrrolidin-3-yl)methanesulfonamide]
95	CS(=O)(=O)N[C@H]1CCN(C(=O)C2CCC2)[C@H]1Cc1ccc(F)c(-c2ccccc2)c1 (relative stereo) [Example 303, N-(cis-1-(cyclobutylcarbonyl)-2-((6-fluorobiphenyl-3-yl)methyl)pyrrolidin-3-yl)methanesulfonamide]
94	CS(=O)(=O)N[C@H]1CCN(C(=O)C2CCC2)[C@H]1Cc1ccc(F)c(-c2cccc(F)c2)c1 (relative stereo) [Example 304, N-(cis-1-(cyclobutylcarbonyl)-2-((3′,6-difluorobiphenyl-3-yl)methyl)pyrrolidin-3-yl)methanesulfonamide]
105	CCS(=O)(=O)N[C@H]1CCN(C(=O)C2CCC2)[C@H]1Cc1csc(-c2cc(F)cc(F)c2)n1 (relative stereo) [Example 315, N-(cis-1-(cyclobutylcarbonyl)-2-((2-(3,5-difluorophenyl)-1,3-thiazol-4-yl)methyl)pyrrolidin-3-yl)ethanesulfonamide]
104	CCS(=O)(=O)N[C@H]1CCN(C(=O)C2(C)CCC2)[C@H]1Cc1csc(-c2cc(F)cc(F)c2)n1 (relative stereo) [Example 316, N-(cis-2-((2-(3,5-difluorophenyl)-1,3-thiazol-4-yl)methyl)-1-((1-methylcyclobutyl)carbonyl)pyrrolidin-3-yl)ethanesulfonamide]
103	CCS(=O)(=O)N[C@H]1CCN(C(=O)C2(O)CCC2)[C@H]1Cc1csc(-c2cc(F)cc(F)c2)n1 (relative stereo) [Example 317, N-(cis-2-((2-(3,5-difluorophenyl)-1,3-thiazol-4-yl)methyl)-1-((1-hydroxycyclobutyl)carbonyl)pyrrolidin-3-yl)ethanesulfonamide]
102	CCS(=O)(=O)N[C@H]1CCN(C(=O)C23CC(C2)C3)[C@H]1Cc1csc(-c2cc(F)cc(F)c2)n1 (relative stereo) [Example 318, N-(cis-1-(bicyclo[1.1.1]pent-1-ylcarbonyl)-2-((2-(3,5-difluorophenyl)-1,3-thiazol-4-yl)methyl)pyrrolidin-3-yl)ethanesulfonamide]
101	CS(=O)(=O)N[C@H]1CCN(C(=O)C2CCC2)[C@H]1Cc1csc(-c2ccccc2)n1 (relative stereo) [Example 319, N-(cis-1-(cyclobutylcarbonyl)-2-((2-phenyl-1,3-thiazol-4-yl)methyl)pyrrolidin-3-yl)methanesulfonamide]
104	CC1(C(=O)N2CC[C@H](NS(C)(=O)=O)[C@@H]2Cc2csc(-c3cc(F)cc(F)c3)n2)CCC1 (relative stereo) [Example 322, N-(cis-2-((2-(3,5-difluorophenyl)-1,3-thiazol-4-yl)methyl)-1-((1-methylcyclobutyl)carbonyl)pyrrolidin-3-yl)methanesulfonamide]

The next lines start with the compound.

SMILES	OX2R agonist activity (3 μM, %) [%]
C=C(C)c1cccc(C[C@H]2[C@@H](NS(=O)(=O)C3CC3)CCCN2C(=O)OC(C)C)n1 (relative stereo) [Example 191, isopropyl cis-3-((cyclopropylsulfonyl)amino)-2-((6-(prop-1-en-2-yl)pyridin-2-yl)methyl)piperidine-1-carboxylate]	79
CN(C)C(=O)N1CCC[C@H](NS(C)(=O)=O)[C@@H]1Cc1cccc(-c2ccccc2)c1 (relative stereo) [Example 204, cis-2-(biphenyl-3-ylmethyl)-N,N-dimethyl-3-((methylsulfonyl)amino)piperidine-1-carboxamide]	95
CS(=O)(=O)N[C@H]1CCN(C(=O)C2CC2)[C@H]1Cc1cccc(-c2ccccc2)c1 (relative stereo) [Example 206, N-(cis-2-(biphenyl-3-ylmethyl)-1-(cyclopropylcarbonyl)pyrrolidin-3-yl)methanesulfonamide]	94
CC(C)C(=O)N1CC[C@H](NS(C)(=O)=O)[C@@H]1Cc1cccc(-c2ccccc2)c1 (relative stereo) [Example 209, N-(cis-2-(biphenyl-3-ylmethyl)-1-isobutyrylpyrrolidin-3-yl)methanesulfonamide]	106
CC(C)OC(=O)N1CCC[C@H](NS(C)(=O)=O)[C@@H]1CC1CCCN(c2ccccc2)C1 (relative stereo) [Example 214, isopropyl cis-3-((methylsulfonyl)amino)-2-((1-phenylpiperidin-3-yl)methyl)piperidine-1-carboxylate]	70
CC(C)(C)C(=O)N1CC[C@H](NS(C)(=O)=O)[C@@H]1Cc1cccc(-c2ccccc2)c1 (relative stereo) [Example 227, N-(cis-2-(biphenyl-3-ylmethyl)-1-(2,2-dimethylpropanoyl)pyrrolidin-3-yl)methanesulfonamide]	99
CS(=O)(=O)N[C@H]1CCN(C(=O)C2CCC2)[C@H]1Cc1csc(-c2cccc(F)c2)n1 (relative stereo) [Example 254, N-(cis-1-(cyclobutylcarbonyl)-2-((2-(3-fluorophenyl)-1,3-thiazol-4-yl)methyl)pyrrolidin-3-yl)methanesulfonamide]	101
CS(=O)(=O)N[C@H]1CCN(C(=O)C2CCC2)[C@H]1Cc1csc(-c2ccccc2F)n1 (relative stereo) [Example 255, N-(cis-1-(cyclobutylcarbonyl)-2-((2-(2-fluorophenyl)-1,3-thiazol-4-yl)methyl)pyrrolidin-3-yl)methanesulfonamide]	101
CS(=O)(=O)N[C@H]1CCN(C(=O)C2CCC2)[C@H]1Cc1csc(-c2cccc(F)c2F)n1 (relative stereo) [Example 256, N-(cis-1-(cyclobutylcarbonyl)-2-((2-(2,3-difluorophenyl)-1,3-thiazol-4-yl)methyl)pyrrolidin-3-yl)methanesulfonamide]	97
CS(=O)(=O)N[C@H]1CCN(C(=O)C2CCC2)[C@H]1Cc1csc(-c2cc(F)cc(F)c2)n1 (relative stereo) [Example 258, N-(cis-1-(cyclobutylcarbonyl)-2-((2-(3,5-difluorophenyl)-1,3-thiazol-4-yl)methyl)pyrrolidin-3-yl)methanesulfonamide]	95
O=C(C1CCC1)N1CC[C@H](NS(=O)(=O)C2CC2)[C@@H]1Cc1csc(-c2ccccc2)n1 (relative stereo) [Example 259, N-(cis-1-(cyclobutylcarbonyl)-2-((2-phenyl-1,3-thiazol-4-yl)methyl)pyrrolidin-3-yl)cyclopropanesulfonamide]	95
O=C(C1CCC1)N1CC[C@H](NS(=O)(=O)CF)[C@@H]1Cc1csc(-c2ccccc2)n1 (relative stereo) [Example 269, N-(cis-1-(cyclobutylcarbonyl)-2-((2-phenyl-1,3-thiazol-4-yl)methyl)pyrrolidin-3-yl)-1-fluoromethanesulfonamide]	111
CC(C)C(=O)N1CC[C@H](NS(C)(=O)=O)[C@@H]1Cc1cccc(-c2ccccc2)c1F (relative stereo) [Example 293, N-(cis-2-((2-fluorobiphenyl-3-yl)methyl)-1-isobutyrylpyrrolidin-3-yl)methanesulfonamide]	102
